Assay [1] has as its system MCF7 (breast adenocarcinoma). Nature of the assay: Antiproliferative activity against MCF7 (XTT colorimetric method). The format is cell-based. Particulars: Homo sapiens, 72 h treatment. The protocol: The in vitro antiproliferative activity of MDS at 1 µM after 72 h treatments was evaluated by a colorimetric method against the human tumor cell lines HeLa (cervix epithelioid carcinoma) and MCF7 (breast adenocarcinoma). Compounds showing more than 40% inhibition at 1 µM in at least three independent assays were evaluated in a range of concentrations between 0.1 nM and 10 µM for the determination of half-maximal inhibitory concentrations (IC50) (Table 1). Paclitaxel, CA-4, and ABT-751 were used as references.
MCF7 (human breast carcinoma), SKOV-3 (human ovarian carcinoma), OVCAR-3 (human ovarian carcinoma), OVCAR-8 (human ovarian carcinoma), and HeLa (human cervical carcinoma) cell lines were cultured in Dulbecco’s Modified Eagle’s Medium (DMEM) (Gibco, Thermo Fischer Scientific) containing 10% (v/v) heat-inactivated fetal bovine serum (HIFBS) (Lonza-Cambrex, Karlskoga, Sweden), 2 mM L-glutamine (Lonza-Cambrex, Karlskoga, Sweden), 100 μg/mL streptomycin, and 100 IU/mL penicillin (Lonza-Cambrex) at 37 °C in humidified 95% air and 5% CO2. HT-29 (human colon carcinoma), IGROV-1 (human ovarian carcinoma), and A2780 (human ovarian carcinoma) cell lines were cultured in RPMI 1640 medium (Gibco, Thermo Fischer Scientific) supplemented with 10% HIFBS, 100 μg/mL streptomycin, and 100 IU/mL penicillin at 37 °C in humidified 95% air and 5% CO2 atmosphere. The presence of mycoplasma was routinely checked with MycoAlert kit (Lonza-Cambrex) and only mycoplasma-free cells were used in the experiments. Ovarian tumor cell lines were originally acquired from Dr Atanasio Pandiella from Centro de Investigación del Cáncer (CIC), Salamanca, Spain. HeLa, HT-29 and MCF7 tumor cell lines were provided by Dr Faustino Mollinedo from Centro de Investigaciones Biológicas Margarita Salas, Madrid, Spain.
MCF7, HeLa, and HT-29 cell proliferation, when treated with the corresponding compounds, were determined using the XTT (sodium 3’-[1(phenylaminocarbonyl)-3,4-tetrazolium]-bis(4-methoxy-6-nitro)-benzenesulfonic acid hydrate) cell proliferation kit (Roche Molecular Biochemicals, Mannheim, Germany). A freshly prepared mixture of XTT labeling reagent with 0.02% (v/v) PMS (N-methyl-dibenzopyrazine methyl sulfate) electron coupling reagent was added to cells (50 µL/well in 96-well plates, total volume of 160 µL/well). Cells were incubated under standard culture conditions for 4 h (MCF7 and HeLa) or 6 h (HT-29). The absorbance of the formazan product generated was measured at 450 nm using a multi-well plate reader. SKOV-3, OVCAR-3, OVCAR-8, IGROV-1, A-2780 cell proliferation, when treated with the corresponding compound, were determined using MTT (3-(4,5-dimethylthiazol-2-yl)-2,5-diphenyl-2H-tetrazolium bromide) (Sigma-Aldrich, St. Louis, MO, USA). MTT in Phosphate Buffer Saline (PBS) (5 mg/ml) was added to cells (110 µL/well in 24-well plates, total volume of 1110 µL/well). After 1 hour of incubation, the medium was aspirated, and formazan violet crystals were dissolved in dimethyl sulfoxide (DMSO) (500 µL/well). Absorbance was measured at 570 nm in a plate reader (Ultra Evolution, Tecan, Männedorf, Suiza). To determine cell viability, cells in exponential growth phase were seeded (100 µL/well in 96-well plates and 1000 µL/well in 24-well plates) with appropriate cell line concentration (1.5·10^4 cells/mL for MCF7 and HeLa, 3·10^4 cells/mL for HT-29, and 1·10^4 cells/mL for SKOV-3, OVCAR-3, OVCAR-8, IGROV-1, and A-2780) in complete RPMI 1640 or DMEM medium at 37°C and 5% CO2 atmosphere. After 24 h incubation, to allow cells to attach to the plates, all compounds were added at 1 µM concentration and the effect on the proliferation was evaluated 72 h post-treatment. Compounds showing antiproliferative effects at tested concentration were selected for IC50 calculation (50% inhibitory concentration with respect to the untreated controls) from 10^−5 to 10^−10 M concentration. Non-linear curves fitting the experimental data were carried out for each compound. […]

For assay [2], the system named is tubulin (microtubular protein isolated from calf brain). Description: Tubulin Polymerization Inhibition (TPI) assay, turbidity. In kind it is biochemical. Particulars: 1.5 mg/mL microtubular protein; for TPI % 10 µM: compound at 10 µM. The protocol: The effect of all the synthesized compounds on the in vitro tubulin polymerization was evaluated at 10 µM. All the compounds that inhibited polymerization more than 30% were also assayed at 20 µM. IC50 values were calculated for those compounds inhibiting tubulin polymerization by at least 50% at 20 µM (Table 1 and Supplemental Figure S2).
Microtubular protein was isolated from calf brain according to the modified Shelanski method by two cycles of temperature-dependent assembly/disassembly and stored at −80 °C. Before each use, protein concentration was determined by the Bradford method taking BSA as standard.
Tubulin polymerization was monitored using a Helios α spectrophotometer by measuring the increase in turbidity at 450 nm, caused by a shift from 4 °C to 37 °C, which allows the in vitro microtubular protein to depolymerize and polymerize, respectively. The assay was carried out in quartz cuvettes containing 1.5 mg/mL microtubular protein and the ligand (except for control cuvette with only DMSO at the same concentration) in a mixture of 0.1 M MES buffer, 1 mM EGTA, 1 mM MgCl2, 1 mM β-ME, and 1.5 mM GTP at pH 6.7 (final volume 500 µL). Cuvettes were preincubated at 20 °C for 30 min, to allow ligand binding to tubulin, and subsequently cooled on ice for 10 min. Then, the experiment starts at 4 °C to establish the initial baseline. The assembly process was initiated by a temperature shift to 37 °C and the turbidity produced by tubulin polymerization can be measured by an absorbance increase. After reaching a stable plateau, the temperature was switched back to 4 °C to return to the initial absorption values (to confirm the reversible nature of the monitored process and to determine whether or not the microtubular tubular protein has stabilized). The difference in amplitude between the stable plateau and the initial baseline of the curves was taken as the degree of tubulin polymerization for each experiment. Comparison with control curves under identical conditions but without ligands yielded TPI as a percentage value. All compounds were tested at 10 µM concentration. Compounds that inhibited tubulin polymerization by at least 30% at 10 µM were tested at 20 µM. IC50 values were calculated for compounds that inhibit tubulin polymerization by more than 50% at 20 µM. Compounds were dissolved in DMSO, and the final solvent concentration never exceeded 4% (v/v), which has been reported not to interfere with the assembly process. All the measurements were carried out in at least two independent experiments using microtubular protein from different preparations.

The source of these data is PMC7918738, “Microtubule Destabilizing Sulfonamides as an Alternative to Taxane-Based Chemotherapy” (International Journal of Molecular Sciences, 2021).

Compound `COc1ccc(/C=C\c2cc(OC)c(OC)c(OC)c2)cc1O` [Combretastatin A-4, reference compound] gave an IC50 in assay [1] of 1 nM. In assay [2], the IC50 stood at […] and the “TPI % 10 µM” value stood at […].

In the case of `COc1ccc(S(=O)(=O)Nc2cc(OC)c(OC)c(OC)c2)cc1` [Compound 1a], the IC50 in assay [1] was 375 nM; in assay [2] it was more than 20 µM. Besides, the “TPI % 10 µM” value in assay [2] stood at 0%.

`COc1ccc(S(=O)(=O)N(c2cc(OC)c(OC)c(OC)c2)S(=O)(=O)c2ccc(OC)cc2)cc1` [Compound 1b]: the 50% inhibitory concentration (IC50) is more than 1000 nM in assay [1] and more than 20 µM in assay [2]. In addition, in assay [2], the “TPI % 10 µM” value worked out at 0%.

Compound `COc1ccc(S(=O)(=O)N(C)c2cc(OC)c(OC)c(OC)c2)cc1` [Compound 2a] returned a half-inhibitory concentration (IC50) in assay [1] of 127 nM. Moreover, in assay [2], the half-inhibitory concentration (IC50) is more than 20 µM and the “TPI % 10 µM” value is listed as 35%.

With `CCN(c1cc(OC)c(OC)c(OC)c1)S(=O)(=O)c1ccc(OC)cc1` [Compound 3], 87 nM corresponded to half-maximal inhibition in assay [1] (IC50). For the same compound, in assay [2], the IC50 is more than 20 µM and the “TPI % 10 µM” value turned out to be 25%.

With `COc1ccc(S(=O)(=O)N(CCBr)c2cc(OC)c(OC)c(OC)c2)cc1` [Compound 4], half-maximal inhibition in assay [1] (IC50) was put at 340 nM. In addition, in assay [2], the half-maximal inhibitory concentration (IC50) is more than 20 µM and the “TPI % 10 µM” value is recorded as 30%.

In assay [1], `COc1ccc(S(=O)(=O)N(C(C)=O)c2cc(OC)c(OC)c(OC)c2)cc1` [Compound 5] yielded a 50% inhibitory concentration (IC50) of 270 nM. For the same compound, in assay [2], the IC50 is more than 20 µM and the “TPI % 10 µM” value is 0%.

In the case of `COc1ccc(S(=O)(=O)N(CC#N)c2cc(OC)c(OC)c(OC)c2)cc1` [Compound 6], the IC50 in assay [1] amounted to 275 nM. In assay [2], the IC50 is more than 20 µM and the “TPI % 10 µM” value stood at 0%.

With `CCOC(=O)CN(c1cc(OC)c(OC)c(OC)c1)S(=O)(=O)c1ccc(OC)cc1` [Compound 7], the IC50 is 335 nM in assay [1] and more than 20 µM in assay [2]. In addition, the “TPI % 10 µM” value in assay [2] is on record as 21%.

Turning to `COc1ccc(S(=O)(=O)N(CC(=O)O)c2cc(OC)c(OC)c(OC)c2)cc1` [Compound 8], the IC50 in assay [1] was more than 1000 nM. In assay [2], the IC50 was more than 20 µM and the “TPI % 10 µM” value came out at 0%.

On to `COc1ccc(S(=O)(=O)N(Cc2ccccc2)c2cc(OC)c(OC)c(OC)c2)cc1` [Compound 9], for which the midpoint of inhibition in assay [1], the IC50, lay at 830 nM. Also, in assay [2], the IC50 was more than 20 µM and the “TPI % 10 µM” value is on record as 21%.

In the case of `COc1ccc(S(=O)(=O)N(C(=O)OCc2ccccc2)c2cc(OC)c(OC)c(OC)c2)cc1` [Compound 10], the concentration for half-maximal inhibition (IC50) in assay [1] was more than 1000 nM. Further, in assay [2], the IC50 is more than 20 µM and the “TPI % 10 µM” value is given as 11%.

Compound `COc1ccc(S(=O)(=O)Nc2cc(OC)c(OC)c(OC)c2[N+](=O)[O-])cc1` [Compound 11] returned an IC50 in assay [1] of more than 1000 nM. In assay [2], the half-maximal inhibitory concentration (IC50) is more than 20 µM and the “TPI % 10 µM” value is recorded as 10%.

As to `COc1ccc(S(=O)(=O)Nc2cc(OC)c(OC)c(OC)c2N)cc1` [Compound 12], the values for the concentration for half-maximal inhibition (IC50) in assay [1] and in assay [2] were more than 1000 nM and more than 20 µM, respectively. Further, in assay [2], the “TPI % 10 µM” value is on record as 0%.

As for `COc1ccc(S(=O)(=O)N(C)c2cc(OC)c(OC)c(OC)c2N)cc1` [Compound 13], the half-maximal inhibitory concentration (IC50) in assay [1] was more than 1000 nM. In assay [2], the concentration for half-maximal inhibition (IC50) is more than 20 µM and the “TPI % 10 µM” value is given as 0%.

As for `COc1ccc(S(=O)(=O)Nc2cc(OC)c(OC)c(OC)c2NCN(c2cc(OC)c(OC)c(OC)c2N)S(=O)(=O)c2ccc(OC)cc2)cc1` [Compound 14], the 50% inhibitory concentration (IC50) in assay [1] is more than 1000 nM; in assay [2], more than 20 µM. Moreover, the “TPI % 10 µM” value in assay [2] was 0%.

`COc1ccc(S(=O)(=O)Nc2cc(OC)c(OC)c(OC)c2NC(C)=O)cc1` [Compound 15]: the IC50 in assay [1] was more than 1000 nM. Besides, in assay [2], the IC50 was more than 20 µM and the “TPI % 10 µM” value was determined as 0%.

Turning to `COc1ccc(S(=O)(=O)N(C)c2cc(OC)c(OC)c(OC)c2NC(C)=O)cc1` [Compound 16], the IC50 in assay [1] was more than 1000 nM; in assay [2], more than 20 µM. Moreover, the “TPI % 10 µM” value in assay [2] stood at 0%.

Take `COc1ccc(S(=O)(=O)Nc2cc(OC)c(OC)c(OC)c2NC=O)cc1` [Compound 17]: the IC50 in assay [1] was more than 1000 nM. In assay [2], the IC50 was more than 20 µM and the “TPI % 10 µM” value stood at 4%.

The compound `COc1ccc(S(=O)(=O)Nc2cc(OC)c(OC)c(OC)c2N(C)C)cc1` [Compound 18] gave an IC50 in assay [1] of more than 1000 nM. Also, in assay [2], the IC50 was more than 20 µM and the “TPI % 10 µM” value is given as 0%.

In assay [1], `COc1ccc(S(=O)(=O)N(C)c2cc(OC)c(OC)c(OC)c2N(C)C)cc1` [Compound 19] returned an IC50 of more than 1000 nM. Further, in assay [2], the IC50 is more than 20 µM and the “TPI % 10 µM” value came to 0%.

The compound `COc1ccc(S(=O)(=O)Nc2cc(OC)c(OC)c(OC)c2Br)cc1` [Compound 20] displayed a half-inhibitory concentration (IC50) in assay [1] of more than 1000 nM. For the same compound, in assay [2], the IC50 is more than 20 µM and the “TPI % 10 µM” value was found to be 0%.

The compound `COc1ccc(S(=O)(=O)Nc2cc(OC)c(OC)c(OC)c2NC(=O)CNC(=O)OC(C)(C)C)cc1` [Compound 21] returned an IC50 in assay [1] of more than 1000 nM. In assay [2], the 50% inhibitory concentration (IC50) was more than 20 µM and the “TPI % 10 µM” value was determined as 0%.

Consider `COc1ccc(S(=O)(=O)n2nnc3c(OC)c(OC)c(OC)cc32)cc1` [Compound 23], for which the IC50 in assay [1] is more than 1000 nM. In assay [2], the IC50 was more than 20 µM and the “TPI % 10 µM” value is given as 0%.

`COc1ccc(S(=O)(=O)n2cnc3c(OC)c(OC)c(OC)cc32)cc1` [Compound 24] yielded a half-inhibitory concentration (IC50) in assay [1] of more than 1000 nM. Moreover, in assay [2], the IC50 is more than 20 µM and the “TPI % 10 µM” value came to 0%.

In turn, `COc1cc(NS(=O)(=O)c2ccc([N+](=O)[O-])cc2)cc(OC)c1OC` [Compound 25] came in with a half-inhibitory concentration (IC50) in assay [1] of more than 1000 nM. Also, in assay [2], the IC50 is more than 20 µM and the “TPI % 10 µM” value is 0%.

As for `COc1cc(NS(=O)(=O)c2ccc(N)cc2)cc(OC)c1OC` [Compound 26], in assay [1], the IC50 is more than 1000 nM. Moreover, in assay [2], the IC50 was more than 20 µM and the “TPI % 10 µM” value is 0%.
